Data from patent US20120022045A1, “BRIDGED COMPOUNDS AS HIV INTEGRASE INHIBITORS” (priority 2009, published 2012).
Read-outs that look alike come from different tables or passages of the source.

Tests used:
Type in all cases: cell-based
HIV-1 wild type IIIB = experiment: Single cycle infectivity assay in HeLa P4-2 cells, wild type virus
Description: (§1) An assay for measuring the inhibition of acute HIV-1 infection with HeLa P4-2 cells in a single cycle infectivity assay was conducted using methods described in Joyce et al., J. Biol. Chem. 2002, 277: 45811, Hazuda et al., Science 2000, 287: 646, and Kimpton et al, J. Virol. 1992, 66: 2232. Proviral plasmids encoding viruses containing specific mutations in the integrase gene (N155H, Q148R, Y143R, E92Q, or G140S/Q148H) were generated by site-directed mutagenesis, and viruses were produced by transfecting 293T cells with the appropriate proviral plasmids.

[1] = system: HIV-1 integrase mutant virus N155H; experiment: Single cycle infectivity assay in HeLa P4-2 cells, integrase mutant N155H virus; conditions: fold shift in IC50 versus wild type IIIB
Description: as §1

[2] = system: HIV-1 integrase mutant virus Q148R; experiment: Single cycle infectivity assay in HeLa P4-2 cells, integrase mutant Q148R virus; conditions: fold shift in IC50 versus wild type IIIB
Description: as §1

[3] = system: HIV-1 integrase mutant virus Y143R; experiment: Single cycle infectivity assay in HeLa P4-2 cells, integrase mutant Y143R virus; conditions: fold shift in IC50 versus wild type IIIB
Description: as §1

[4] = system: HIV-1 integrase mutant virus G140S/Q148H; experiment: Single cycle infectivity assay in HeLa P4-2 cells, integrase mutant G140S/Q148H virus; conditions: fold shift in IC50 versus wild type IIIB
Description: as §1

HIV-1 = experiment: Inhibition of acute HIV-1 infection of T-lymphoid cells (spread assay); conditions: 10% FBS, read-out: IC95 (nM) in the presence of 10% FBS
Description: Assays for the inhibition of acute HIV-1 infection of T-lymphoid cells were conducted in accordance with Vacca, J. P. et al., Proc. Natl. Acad. Sci. USA 1994, 91: 4096.

[5] = Human immunodeficiency virus 1, IIIB, HeLaP4-2, wild type IIIB

SMILES | IC50 (HIV-1 wild type IIIB; wild type IIIB) [µM] | N155H (shift) [1] [fold] | Q148R (shift) [2] [fold] | Y143R (shift) [3] [fold] | G140S/Q148H (shift) [4] [fold] | IC95 (HIV-1) [nM] | IC95 (HIV-1; Human immunodeficiency virus 1, T-lymphoid) [nM] | IC50 (HIV-1 wild type IIIB; [5]) [µM]
CC1C2CCC(NC(=O)C(=O)N(C)C)(CO2)c2nc(C(=O)NCc3ccc(F)cc3)c(O)c(=O)n21 (single isomer, unassigned) [Example 29B, N′-(4-{[(4-Fluorobenzyl)amino]carbonyl}-5-hydroxy-8-methyl-6-oxo-10-oxa-3,7-diazatricyclo[7.2.2.0^2,7]trideca-2,4-dien-1-yl)-N-dimethylethanediamide] | 0.069 | 1 | 3 | 2 | 2 |  |  | 
CCC1C2CCC(NC(=O)C(=O)N(C)C)(CO2)c2nc(C(=O)NCc3ccc(F)cc3)c(O)c(=O)n21 (single isomer, unassigned) [Example 26D, N′-(8-ethyl-4-{[(4-fluorobenzyl)amino]carbonyl}-5-hydroxy-6-oxo-10-oxa-3,7-diazatricyclo[7.2.2.0^2,7]trideca-2,4-dien-1-yl)-N-dimethylethanediamide] | 0.016 | 1 | 1 | 2 | 1 | 5.1 |  | 
CN(C)C(=O)C(=O)N(C)C12CCC(Cn3c1nc(C(=O)NCc1ccc(F)cc1)c(O)c3=O)C2 (stereo not drawn) [Example 8] |  | 16 | 18 | 13 | 110 |  | 9.2 | 0.013
CC1C2CCC(N(C)C(=O)C(=O)N(C)C)(CO2)c2nc(C(=O)NCc3ccc(F)cc3)c(O)c(=O)n21 (single isomer, unassigned) [Example 27A, N-(4-{[(4-fluorobenzyl)amino]carbonyl}-5-hydroxy-8-methyl-6-oxo-10-oxa-3,7-diazatricyclo[7.2.2.0^2,7]trideca-2,4-dien-1-yl)-N,N′,N′-trimethylethanediamide] | 0.02 | 1 | 1 | 1 | 2 | 7.5 |  | 
CN(C)C(=O)C(=O)N(C)C1CCCCn2c1nc(C(=O)NCc1ccc(F)cc1)c(O)c2=O (stereo not drawn) [Compound Y, (—)N-(2-{[(4-fluorobenzyl)amino]-carbonyl}-3-hydroxy-4-oxo-4,6,7,8,9,10-hexahydropyrimido[1,2-a]azepin-10-yl)-N,N′,N′-trimethylethanediamide, reference compound] |  | 15 | 26 | 1 | 410 |  |  | 0.016
Cc1nnc(C(=O)NC(C)(C)c2nc(C(=O)NCc3ccc(F)cc3)c(O)c(=O)n2C)o1 [Compound X, raltegravir, reference compound] |  | 13 | 22 | 15 | 400 |  |  | 0.052
CNC(=O)C(=O)N(C)C12CCC(OC1)C(C)n1c2nc(C(=O)NCc2ccc(F)cc2)c(O)c1=O (single isomer, unassigned) [Example 28B, N-(4-{[(4-fluorobenzyl)amino]carbonyl}-5-hydroxy-8-methyl-6-oxo-10-oxa-3,7-diazatricyclo[7.2.2.0^2,7]trideca-2,4-dien-1-yl)-N,N′-dimethylethanediamide] |  |  |  |  |  | 15.9 |  | 
CC1(C)OCCn2c1nc(C(=O)NCc1ccc(F)cc1)c(O)c2=O [Compound Z, N-[(4-fluorophenyl)methyl]-3-hydroxy-9,9-dimethyl-4-oxo-4,6,7,9-tetrahydro-6H-pyrimido[2,1-c][1,4]oxazine-2-carboxamide, reference compound] | 0.034 | 32 | >34 | 1 | >34 |  |  | 
